# Laboratory results as given in patent US8609361B2, “Real time electrophysiological testing of agents of interest for treatment of amyloid-type diseases” (Universidad de Concepcion, priority 2007, dated 2013).
# Assays:
# [1] = test system: plasma membrane of hippocampal neurons; assay: cell-attached to perforated patch-clamp recording with the agent in the glass pipette; assay type: cell-based, mice
# Experimental: In absence of Aβ or gramicidin, cell attached recordings are stable for more than 60 min.
# Control is the charge in cell-attached configuration and reflects the recording of the glass pipette properties partially compensated to visualize part of the transient. Negative pressure reflects the charge obtained with a routine whole-cell configuration. Gramicidin and amphotericin are antibiotics routinely used to generate perforates. Data are ±S.E. average (n=6; different experiments).
# The experimental evidence of the invention allows establishing that conductance changes may be the result of the forming of a cationic-type pore, very similar to that generating gramicidin. […] Basically, this invention procedure is formed by two stages: • b) Exposing a small area or patch of plasma membrane, in a preferable embodiment said membranes are neuron membranes, to peptide aggregates under study and/or to active ingredients, and/or compounds of interest. • c) Determining, measuring, and quantifying electric parameters of membranes exposed to these aggregates; in a preferable embodiment, the parameter is conductance (inverse of electrical resistance resulting from resistance range and the glass pipette potential).
# The method described in this invention uses a variation of the technique known as patch cell-attached to study the Aβ peptide effects. In this invention embodiment, records very stable in time are obtained and maintained for more than 5 minutes, preferably for more than 15 minutes, and more preferably for more than 30 minutes. At the same time, this embodiment provides an intrinsic noise level under 5 pA, preferably under 3 pA, and more preferably under 1 pA, which may be due to the registry being obtained from a small cell area that normally contains very few ionic channels. […] However, the most important characteristics in this event is the evidence of the fast capacitative resistance component, which reflects formation of a perforated form that supports the conclusion that pores are generated in the membrane (see FIGS. 1 and 2).
# Animals are treated and handled according to the NIH recommendations. 18-day pregnant mice (C57BL7J6) are anesthetized with ether and sacrificed through cervical dislocation. Embryo are quickly removed and beheaded with sterile material. Brains are removed and kept in cold Hank medium.
# The midbrain is separated in order to expose the hippocampus area, which is dissected from the brain and mechanically dispersed using trypsin, collagenase, and DNAsa III. Neurons are placed (“planted”) in 35 mm dishes covered with poly-L-lisine at a density of 350000 neurons per ml.
# Neurons are left to grow in vitro during 12 days, and then recorded using electro-physiology. The means of culture is 80% MEM, 2 mM glutamine, and 10% bovine fetal serum. The means are changed every three days. Every reagent used is dissolved in PBS, which is used as control.
# Peptide aggregates are diluted to working concentration and were made at concentrations from 0.01 μM to 50 μM, preferably between 0.03 and 20, more preferably 0.05 and 10 μM. This aggregate is diluted in an internal solution (called so because it artificially imitates intra-cell fluid) mainly formed by KCl, BAPTA, calcium, and ATP, as previously described. The aggregate is diluted in this solution, which is loaded into the pipette to be used for Patch-Clamp. This solution is taken into a tuberculin syringe, from which the needle has been removed, and a small capillary-HPLC is added. With this modified syringe, the internal solution volume is taken with no Aβ aggregates as control. It may also be used with the aggregate and/or other molecules of biologic interest in the event evaluations and determining the said molecules' pharmacologic activities is required.
# Using the capillary-HPLC in the syringe, the internal solution is introduced into the glass pipette, slowly removing it as the pipette becomes full in order to reduce bubbles. […]
# neurons = assay: whole-cell patch clamp, membrane potential; assay type: cell-based, mice; details: low concentrations (preferably less than 1 μM, more preferably 0.5 μM Aβ)
# [2] = Aβ peptide aggregation in solution followed by turbidity (optical density); assay type: physicochemical; details: about 100 μM peptide in PBS pH 7.4, stirring about 600 rpm, about 37° C., after 120 minutes
# Experimental: FIG. 2A is a graph indicating the Aβ peptide aggregation structure progress in solution. […] The solution absorbency measurement is observed as a change in optical densities (D.O.), which reflects formation of complex structures, amyloid aggregates. Images B-D correspond to ultra micro photographs obtained with an electronic microscope. The recognition of different structures formed during the aggregation process is possible. Aggregates obtained at 120 min and fibers obtained at 5 days of aggregation are readily noticed.
# In order to generate the working solution, these portions are defrosted under a laminar flow bell and diluted in sterile PBS at pH 7.4. 700 μl PBS are added to the 25 μl of each peptide portion, obtaining a final work volume of 725 μl, with peptide at an approximate concentration of 100 μM. This peptide solution is defined as “Soluble Peptide” and it is mainly formed by Aβ peptide monomers. This soluble peptide is induced to aggregation by stirring at approximately 600 rpm at temperature around 37° C. During this process, the solution optical density is determined at 405 nm every 15 minutes for a total time of 120 minutes. […] This solution is called “Aggregate Peptide”, and electronic microscope inspection has determined that it corresponds to a heterogeneous structure population, among which amorphous aggregate shapes, 100 nm protofibril, and short fibers are noted.
# AMPA and NMDA receptors = details: reported in the art; cited from earlier work
molecule,measurement,setting,value
gramicidin,development of perforation,"[1]; 50 μM in the glass pipette, FIG. 1B",typical perforation
"Aβ: Synthetic peptide Aβ1-40 (TOCRIS or Sigma), human sequence of β-amyloid peptide, aggregated by stirring at 37° C.",conversion of the cell-attached recording into a perforated recording (increased capacitative peak and late conductance),"[1]; 500 nM in the glass pipette solution, FIG. 1A",spontaneously convert the recording into a perforated variation of the technique
same,charge transferred by the cellular membrane during a 10 mV pulse,"[1]; FIG. 3, n=6",form perforations in the membrane
same,input current following the high-resistance seal formation,[1]; in the presence of Aβ,−40 to −70 pA
same,current range,"[1]; low-concentration peptide, few pores in the cell",≤ 50 pA
same,membrane de-polarization,[1]; measurements and recordings of the invention method,has not been detected
same,changes in membrane potential,neurons,have not shown significant changes in membrane potential
same,solution optical density at 405 nm,[2],0.2-0.3
N#Cc1cc2[nH]c(=O)c(=O)[nH]c2cc1[N+](=O)[O-] [CNQX],inhibition of peptide effects on calcium levels,AMPA and NMDA receptors,inhibited
